Measured values published in US11267840B1, “Compound or salt thereof” (M.T.3, Inc., priority 2020, dated 2022).

Experiments:
[1] = test system: adenocarcinomic human alveolar basal epithelial cell line A549 cells; test: ROS production in A549 cells (CellROX Green fluorescence), test as candidate compound for radiosensitizer; assay type: cell-based; settings: 1 hour with test compound, CellROX Green 30 minutes, excitation 485 nm, detection 520 nm, FIG. 19
Procedure: Fetal bovine serum (FBS) (manufactured by Sigma-Aldrich) was added to RPMI1640 (manufactured by Sigma-Aldrich) such that a final concentration was 10%. Further, penicillin G potassium (manufactured by Meiji Seika) and Streptomycin (manufactured by Meiji Seika) were each added in an amount of 0.1 mg/mL, and the thus obtained solution was used as a culture medium in the following test. Also, a CellROX Green Reagent solution (manufactured by Thermo Fisher Scientific) was used as a reagent.
Adenocarcinomic human alveolar basal epithelial cell line A549 cells were suspended in the RPMI1640 medium (1.0×10^5 cells/mL), and the suspension was poured into a 96-well plate in an amount of 100 μL for each well. Thereafter, the cells were cultivated under a 5% CO2 moisture-saturated condition at 37° C. so as to attach to the plate, and after the cultivation was performed for 24 hours, the medium was removed by suction and the cells were washed with PBS. Next, 100 μL of PBS and 100 μL of a suspension of the test compound suspended in PBS ([…]) were separately added. […] After the cultivation was performed for 30 minutes, washing was performed using PBS, and fluorescence intensity at an excitation wavelength of 485 nm and a detection wavelength of 520 nm was measured.

[2] = molecular target: T1, lipase for organic synthesis (Lipase PS Amano SD) (Burkholderia cepacia, UniProt P22088); assay type: in vitro ADME
T1 construct: purchased FUJIFILM Wako Pure Chemical Corporation
Procedure: The test compound and lipase for organic synthesis (Lipase PS Amano SD, manufactured by FUJIFILM Wako Pure Chemical Corporation) were each adjusted using PBS so as to have a concentration of 1.3 μg/μL. Next, the thus obtained reaction solution was developed by TLC using an eluent (chloroform:methanol=1:1) and was analyzed. A sample that was taken before reaction progressed, a sample that was taken when 2 hours elapsed, and a sample that was taken when 4 hours elapsed were each used as the reaction solution to be developed. As for the reaction solution in which the compound (A) was used as the test compound, analysis was also performed on a sample that was taken when 18 hours elapsed from the start of reaction. TLC aluminum sheet silica gel 60 F254 (manufactured by Merck) was used as the TLC.

T1 sequence (P22088 45-364): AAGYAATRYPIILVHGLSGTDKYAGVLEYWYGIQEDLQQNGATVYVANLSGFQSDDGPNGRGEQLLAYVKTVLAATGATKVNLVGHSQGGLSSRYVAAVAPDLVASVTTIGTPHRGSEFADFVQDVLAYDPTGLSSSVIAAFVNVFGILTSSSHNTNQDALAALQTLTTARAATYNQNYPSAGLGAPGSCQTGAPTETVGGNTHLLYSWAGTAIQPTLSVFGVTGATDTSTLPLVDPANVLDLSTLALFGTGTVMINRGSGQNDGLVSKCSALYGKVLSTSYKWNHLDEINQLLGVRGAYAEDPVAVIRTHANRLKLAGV

Substance: 3-(n-octadecyloxy)-n-propyl-α-D-quinovopyranoside sodium salt [compound (A)]
- ROS production (ROS production ratio, fluorescence intensity relative to PBS only = 1) [1]: induced production of the ROS
- resistance to hydrolysis compared with the sulfopyranosylacyl propanediol derivative ([2]; lipase, overall conclusion of FIG. 20): more excellent resistance to hydrolysis
- decomposition of the test compound by lipase (TLC) ([2]; when 18 hours elapsed from the start of reaction, compound and lipase each 1.3 μg/μL in PBS, FIG. 20): not completely decomposed
